Source: article PMC8911944, “Screening of Natural Products Inhibitors of SARS-CoV-2 Entry” (Molecules, 2022)

System: pseudotyped HIV-1 with the D614G SARS-CoV-2 spike glycoprotein
Assay type: cell-based

Question: How did the “Antiviral Activity (% of Inhibition)” value turn out when `CC(=O)C1COC(O)C1C` (stereo not drawn) [Botryodiplodin] was run?
Answer: −88.21 ± 12.51%

Question: Which “Antiviral Activity (% of Inhibition)” value does the source give for `C=C(C)[C@H]1CC=C(C)CC1` [R-Limonene] here?
Answer: −27.90 ± 16.41%

Question: Which “Antiviral Activity (% of Inhibition)” value does the source give for S-Limonene here?
Answer: −62.63 ± 22.17%

Question: With `CC1=C[C@H](O)[C@H]2C[C@@H]1C2(C)C` (relative stereo) [cis-Verbenol] as the compound, how does the “Antiviral Activity (% of Inhibition)” value read?
Answer: −171.26 ± 32.54%

Question: Which “Antiviral Activity (% of Inhibition)” value does the source give for `CC(=O)OC1C=CC(=O)OC1C1OC1C` (stereo not drawn) [Asperline] here?
Answer: −15.48 ± 8.34%

Question: `C[C@H]1CC[C@@H](C(C)(C)O)CC2=C1CC[C@@H]2C` [Guaiol] was tested. Which “Antiviral Activity (% of Inhibition)” value did it give?
Answer: −60.20 ± 8.02%

Question: For `CC(O)[C@@H]1NC(=O)c2cccn2C1=O` (stereo partly drawn) [Macrophominol], which “Antiviral Activity (% of Inhibition)” value is on record?
Answer: −91.39 ± 26.65%

Question: For `C/C=C/[C@H]1OC(=O)C=C[C@H]1OC(C)=O` [Acetylphomolactone], which “Antiviral Activity (% of Inhibition)” value is on record?
Answer: −0.65 ± 6.16%

Question: `C=C1CC[C@H]2O[C@]2(C)CC[C@@H]2[C@@H]1CC2(C)C` [Caryophyllene Oxide] was tested. Which “Antiviral Activity (% of Inhibition)” value did it give?
Answer: 43.82 ± 6.31%

Question: How did the “Antiviral Activity (% of Inhibition)” value turn out when Isoasperline was run?
Answer: −19.82 ± 10.21%

Question: For `C=C1CC/C=C(\C)CC[C@@H]2[C@@H]1CC2(C)C` [β-Caryophyllene], which “IC50 (50% inhibitory concentration)” value is on record?
Answer: 98.5

Question: How did the “Antiviral Activity (% of Inhibition)” value turn out when `C/C=C/c1ccc(OC)cc1` [Trans-anethole] was run?
Answer: 5.02 ± 0.71%
